Usually IC50 stands for the midpoint of a concentration-inhibition curve.

*1 amine or outer side, *2 acyl side, *3 side chain or, on linkers, in order; H or OH if unused. Where a SMILES comes first, the peptide text is derived from it. [ ]: non-standard residue; d: D form. The star is where a group is joined. Pantoyl(4-O-3'-P-ADP) = CC(C)(COP(=O)(O)OP(=O)(O)OC[C@H]1O[C@@H](n2cnc3c(N)ncnc32)[C@H](O)[C@@H]1OP(=O)(O)O)[C@@H](O)C(=O)*; NHCH2CH2SCH2CO = O=C(CSCCN[*:1])[*:2]; βAla = NCCC(=O)O

This is an account of results in publication PMC10318143, “Optimized bisubstrate inhibitors for the actin N-terminal acetyltransferase NAA80” (Frontiers in Chemistry, 2023).

The first assay deals with T1, MBP-hNAA80 (Homo sapiens, UniProt Q93015).
T1 construct: made in house; host or cells: Escherichia coli BL21 star
T1 sequence (Q93015 1-286): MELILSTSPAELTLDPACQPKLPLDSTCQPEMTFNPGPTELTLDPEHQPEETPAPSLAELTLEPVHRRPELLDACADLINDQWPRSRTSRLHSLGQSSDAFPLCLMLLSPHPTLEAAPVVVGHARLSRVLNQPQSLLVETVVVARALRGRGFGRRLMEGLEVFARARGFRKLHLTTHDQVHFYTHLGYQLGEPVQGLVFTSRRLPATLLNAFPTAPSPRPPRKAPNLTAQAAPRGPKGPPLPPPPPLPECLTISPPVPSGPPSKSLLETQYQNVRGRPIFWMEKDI
Assay: not given
Details: method as in Goris et al., 2018. To be noted: DTNB assay; ± standard deviation; ref Goris et al., 2018; cited from earlier work.
Consider `CC[C@H](C)[C@H](NC(=O)[C@H](CC(=O)O)NC(=O)[C@H](CC(=O)O)NC(=O)[C@H](CC(=O)O)NC(=O)CSCCNC(=O)CCNC(=O)[C@H](O)C(C)(C)COP(=O)(O)OP(=O)(O)OC[C@H]1O[C@@H](n2cnc3c(N)ncnc32)[C@H](O)[C@@H]1OP(=O)(O)O)C(N)=O` [CoA-DDDI-NH2, CoA-Ac-DDDI-NH2] ({Pantoyl(4-O-3'-P-ADP)-βAla}-[NHCH2CH2SCH2CO]DDDI-NH2), for which the IC50 was 380 ± 100 nM.

Take “CoA-EEEI-NH2: previously reported bisubstrate inhibitor: coenzyme A conjugated via acetyl linker to tetrapeptide amide EEEI (γ-actin N-terminus) (not fully specified; N-terminal amine acylated with acetyl linker thioether-bonded to coenzyme A sulfur (CoA-S-CH2-CO-); C-terminal amide)”: the IC50 is 1160 ± 110 nM. In the case of “CoA-MDEL-NH2: previously reported bisubstrate inhibitor: coenzyme A conjugated via acetyl linker to tetrapeptide amide MDEL (not fully specified; N-terminal amine acylated with acetyl linker thioether-bonded to coenzyme A sulfur (CoA-S-CH2-CO-); C-terminal amide)”, the IC50 is 1260 ± 100 nM.

The target in a further assay is T1, MBP-hNAA80. Briefly: In vitro DTNB Nt-acetyltransferase inhibitor assay. To be noted: 300 μM Ac-CoA, 300 μM substrate peptide, Tris pH 8.5, triplicates, ± standard deviation. It counts as biochemical. As to the method: The enzymatic activity of MBP-hNAA80 was measured using a 5,5′-dithiobis-(2-nitrobenzoic acid, DTNB) assay as described previously by Foyn et al. ([Foyn et al., 2017]) and Drazic et al. ([Drazic et al., 2018]) Briefly, the thiol group exposed in the enzymatic product CoA cleaves DTNB and produces 2-nitro-5-thiobenzonate (TNB^−) which ionize to TNB^2- in neutral or alkaline pH and is readily quantified by measuring the absorbance at 412 nm.
An in vitro DTNB assay with enzyme (10–600 nM), 300 μM Ac-CoA, 300 μM substrate peptide, acetylation buffer (Tris, pH 8.5), and at least nine different inhibitor concentrations ranging from 0 to 500 μM was used to calculate the IC50 value for each bisubstrate inhibitor applied in the assay. The reaction was carried out as previously described ([Drazic et al., 2018]; [Goris et al., 2018]), and within a timeframe of 15–50 min. All measurements were performed in triplicates.
`CC[C@H](C)[C@H](NC(=O)[C@H](CCC(=O)O)NC(=O)[C@H](CC(=O)O)NC(=O)[C@H](CC(=O)O)NC(=O)CSCCNC(=O)CCNC(=O)[C@H](O)C(C)(C)COP(=O)(O)OP(=O)(O)OC[C@H]1O[C@@H](n2cnc3c(N)ncnc32)[C@H](O)[C@@H]1OP(=O)(O)O)C(N)=O` [CoA-DDEI-NH2, CoA-Ac-DDEI-NH2] ({Pantoyl(4-O-3'-P-ADP)-βAla}-[NHCH2CH2SCH2CO]DDEI-NH2) registered an IC50 of 2670 ± 670 nM. Still for that read-out and setting: under `CC[C@H](C)[C@H](NC(=O)[C@H](CCC(=O)O)NC(=O)[C@H](CCC(=O)O)NC(=O)[C@H](CC(=O)O)NC(=O)CSCCNC(=O)CCNC(=O)[C@H](O)C(C)(C)COP(=O)(O)OP(=O)(O)OC[C@H]1O[C@@H](n2cnc3c(N)ncnc32)[C@H](O)[C@@H]1OP(=O)(O)O)C(N)=O` [CoA-DEEI-NH2, CoA-Ac-DEEI-NH2] ({Pantoyl(4-O-3'-P-ADP)-βAla}-[NHCH2CH2SCH2CO]DEEI-NH2) stands 1220 ± 330 nM; under `CC(C)C[C@H](NC(=O)[C@H](CCC(=O)O)NC(=O)[C@H](CCC(=O)O)NC(=O)[C@H](CC(=O)O)NC(=O)CSCCNC(=O)CCNC(=O)[C@H](O)C(C)(C)COP(=O)(O)OP(=O)(O)OC[C@H]1O[C@@H](n2cnc3c(N)ncnc32)[C@H](O)[C@@H]1OP(=O)(O)O)C(N)=O` [CoA-DEEL-NH2, CoA-Ac-DEEL-NH2] ({Pantoyl(4-O-3'-P-ADP)-βAla}-[NHCH2CH2SCH2CO]DEEL-NH2), 4730 ± 1430 nM. Same read-out and setting: under `CC[C@H](C)[C@H](NC(=O)[C@H](CC(=O)O)NC(=O)[C@H](CC(=O)O)NC(=O)[C@H](CCC(=O)O)NC(=O)CSCCNC(=O)CCNC(=O)[C@H](O)C(C)(C)COP(=O)(O)OP(=O)(O)OC[C@H]1O[C@@H](n2cnc3c(N)ncnc32)[C@H](O)[C@@H]1OP(=O)(O)O)C(N)=O` [CoA-EDDI-NH2, CoA-Ac-EDDI-NH2] ({Pantoyl(4-O-3'-P-ADP)-βAla}-[NHCH2CH2SCH2CO]EDDI-NH2) stands 120 ± 50 nM. On the same count and under the same terms, then `CC[C@H](C)[C@H](NC(=O)[C@H](CCC(=O)O)NC(=O)[C@H](CC(=O)O)NC(=O)[C@H](CCC(=O)O)NC(=O)CSCCNC(=O)CCNC(=O)[C@H](O)C(C)(C)COP(=O)(O)OP(=O)(O)OC[C@H]1O[C@@H](n2cnc3c(N)ncnc32)[C@H](O)[C@@H]1OP(=O)(O)O)C(N)=O` [CoA-EDEI-NH2, CoA-Ac-EDEI-NH2] ({Pantoyl(4-O-3'-P-ADP)-βAla}-[NHCH2CH2SCH2CO]EDEI-NH2), with 760 ± 180 nM; and `CC(C)C[C@H](NC(=O)[C@H](CCC(=O)O)NC(=O)[C@H](CC(=O)O)NC(=O)[C@H](CCC(=O)O)NC(=O)CSCCNC(=O)CCNC(=O)[C@H](O)C(C)(C)COP(=O)(O)OP(=O)(O)OC[C@H]1O[C@@H](n2cnc3c(N)ncnc32)[C@H](O)[C@@H]1OP(=O)(O)O)C(N)=O` [CoA-EDEL-NH2, CoA-Ac-EDEL-NH2] ({Pantoyl(4-O-3'-P-ADP)-βAla}-[NHCH2CH2SCH2CO]EDEL-NH2), with 150 ± 20 nM; and `CC(C)C[C@H](NC(=O)[C@H](CCC(N)=O)NC(=O)[C@H](CC(=O)O)NC(=O)[C@H](CCC(=O)O)NC(=O)CSCCNC(=O)CCNC(=O)[C@H](O)C(C)(C)COP(=O)(O)OP(=O)(O)OC[C@H]1O[C@@H](n2cnc3c(N)ncnc32)[C@H](O)[C@@H]1OP(=O)(O)O)C(N)=O` [CoA-EDQL-NH2, CoA-Ac-EDQL-NH2] ({Pantoyl(4-O-3'-P-ADP)-βAla}-[NHCH2CH2SCH2CO]EDQL-NH2), with 850 ± 50 nM. `CC[C@H](C)[C@H](NC(=O)[C@H](CC(=O)O)NC(=O)[C@H](CCC(=O)O)NC(=O)[C@H](CCC(=O)O)NC(=O)CSCCNC(=O)CCNC(=O)[C@H](O)C(C)(C)COP(=O)(O)OP(=O)(O)OC[C@H]1O[C@@H](n2cnc3c(N)ncnc32)[C@H](O)[C@@H]1OP(=O)(O)O)C(N)=O` [CoA-EEDI-NH2, CoA-Ac-EEDI-NH2] ({Pantoyl(4-O-3'-P-ADP)-βAla}-[NHCH2CH2SCH2CO]EEDI-NH2) came in with an IC50 of 170 ± 40 nM.

`CC(C)C[C@H](NC(=O)[C@H](CC(=O)O)NC(=O)[C@H](CCC(=O)O)NC(=O)[C@H](CCC(=O)O)NC(=O)CSCCNC(=O)CCNC(=O)[C@H](O)C(C)(C)COP(=O)(O)OP(=O)(O)OC[C@H]1O[C@@H](n2cnc3c(N)ncnc32)[C@H](O)[C@@H]1OP(=O)(O)O)C(N)=O` [CoA-EEDL-NH2, CoA-Ac-EEDL-NH2] ({Pantoyl(4-O-3'-P-ADP)-βAla}-[NHCH2CH2SCH2CO]EEDL-NH2) displayed an IC50 of 1760 ± 520 nM.

Regarding `CC(C)C[C@H](NC(=O)[C@H](CCC(=O)O)NC(=O)[C@H](CCC(=O)O)NC(=O)[C@H](CCC(=O)O)NC(=O)CSCCNC(=O)CCNC(=O)[C@H](O)C(C)(C)COP(=O)(O)OP(=O)(O)OC[C@H]1O[C@@H](n2cnc3c(N)ncnc32)[C@H](O)[C@@H]1OP(=O)(O)O)C(N)=O` [CoA-EEEL-NH2, CoA-Ac-EEEL-NH2] ({Pantoyl(4-O-3'-P-ADP)-βAla}-[NHCH2CH2SCH2CO]EEEL-NH2), the IC50 is 1160 ± 120 nM. Regarding `CC(C)C[C@H](NC(=O)[C@H](CCC(=O)O)NC(=O)[C@H](CO)NC(=O)[C@H](CCC(=O)O)NC(=O)CSCCNC(=O)CCNC(=O)[C@H](O)C(C)(C)COP(=O)(O)OP(=O)(O)OC[C@H]1O[C@@H](n2cnc3c(N)ncnc32)[C@H](O)[C@@H]1OP(=O)(O)O)C(N)=O` [CoA-ESEL-NH2, CoA-Ac-ESEL-NH2] ({Pantoyl(4-O-3'-P-ADP)-βAla}-[NHCH2CH2SCH2CO]ESEL-NH2), the IC50 came out at 11500 ± 3230 nM. Same read-out and setting: then `CC(C)C[C@H](NC(=O)[C@H](CCC(=O)O)NC(=O)[C@H](CC(=O)O)NC(=O)[C@@H]1CCCN1C(=O)CSCCNC(=O)CCNC(=O)[C@H](O)C(C)(C)COP(=O)(O)OP(=O)(O)OC[C@H]1O[C@@H](n2cnc3c(N)ncnc32)[C@H](O)[C@@H]1OP(=O)(O)O)C(N)=O` [CoA-PDEL-NH2, CoA-Ac-PDEL-NH2] ({Pantoyl(4-O-3'-P-ADP)-βAla}-[NHCH2CH2SCH2CO]PDEL-NH2), with 13400 ± 2240 nM.
